The compounds below were run on r(CUG)12-MBNL1 complex (assay: Inhibition of the r(CUG)12-MBNL1 complex measured by TR-FRET). Conditions: Table M; 80 nM RNA, 60 nM MBNL1-His6.
Assay type: biochemical

| SMILES | IC50 [µM] |
| --- | --- |
| C[C@H](C(=O)N(C)[C@H](C)C(=O)N(C)[C@H](C)C(=O)N(C)[C@H](C)C(=O)N(CCCn1cc(COCCOCCOCCOCCNC(=O)c2ccc(-c3nc4ccc(-c5ccc6nc(-c7ccc(C(=O)NCCN(C)C)cc7)[nH]c6c5)cc4[nH]3)cc2)nn1)CC(N)=O)N(C)C(=O)CNCCCn1cc(COCCOCCOCCOCCNC(=O)c2ccc(-c3nc4ccc(-c5ccc6nc(-c7ccc(C(=O)NCCN(C)C)cc7)[nH]c6c5)cc4[nH]3)cc2)nn1 [Compound 431] | > 200 |
| CN(C)CCNC(=O)c1ccc(-c2nc3ccc(-c4ccc5nc(-c6ccc(C(=O)N(C)CCOCCOCc7cn(CCCNCC(=O)N8CCC[C@H]8C(=O)N8CCC[C@H]8C(=O)N8CCC[C@H]8C(=O)N8CCC[C@H]8C(=O)N(CCCn8cc(COCCOCCN(C)C(=O)c9ccc(-c%10nc%11ccc(-c%12ccc%13nc(-c%14ccc(C(=O)NCCN(C)C)cc%14)[nH]c%13c%12)cc%11[nH]%10)cc9)nn8)CC(N)=O)nn7)cc6)[nH]c5c4)cc3[nH]2)cc1 [Compound 432] | 11.6 |
| CN(C)CCNC(=O)c1ccc(-c2nc3ccc(-c4ccc5nc(-c6ccc(C(=O)N(C)CCOCCOCCOCCOCc7cn(CCCNCC(=O)N8CCC[C@H]8C(=O)N8CCC[C@H]8C(=O)N8CCC[C@H]8C(=O)N8CCC[C@H]8C(=O)N(CCCn8cc(COCCOCCOCCOCCN(C)C(=O)c9ccc(-c%10nc%11ccc(-c%12ccc%13nc(-c%14ccc(C(=O)NCCN(C)C)cc%14)[nH]c%13c%12)cc%11[nH]%10)cc9)nn8)CC(N)=O)nn7)cc6)[nH]c5c4)cc3[nH]2)cc1 [Compound 433] | > 200 |
| CN(C)CCNC(=O)c1ccc(-c2nc3ccc(-c4ccc5nc(-c6ccc(C(=O)NCc7cn(CCCNCC(=O)N8CCC[C@H]8C(=O)N8CCC[C@H]8C(=O)N8CCC[C@H]8C(=O)N8CCC[C@H]8C(=O)N(CCCn8cc(CNC(=O)c9ccc(-c%10nc%11ccc(-c%12ccc%13nc(-c%14ccc(C(=O)NCCN(C)C)cc%14)[nH]c%13c%12)cc%11[nH]%10)cc9)nn8)CC(N)=O)nn7)cc6)[nH]c5c4)cc3[nH]2)cc1 [Compound 434, (S)-N-(2-amino-2-oxoethyl)-N-(3-(4-((4-(2′-(4-((2-(dimethylamino)ethyl)carbamoyl)phenyl)-3H,3′H-[5,5′-bibenzo[d]imidazol]-2-yl)benzamido)methyl)-1H-1,2,3-triazol-1-yl)propyl)-1-((3-(4-((4-(2′-(4-((2-(dimethylamino)ethyl)carbamoyl)phenyl)-3H,3′H-[5,5′-bibenzo[d]imidazol]-2-yl)benzamido)methyl)-1H-1,2,3-triazol-1-yl)propyl)glycyl-L-prolyl-L-prolyl-L-prolyl)pyrrolidine-2-carboxamide] | 10.5 |
| CN(C)CCNC(=O)c1ccc(-c2nc3ccc(-c4ccc5nc(-c6ccc(C(=O)N(C)CCCc7cn(CCCNCC(=O)N8CCC[C@H]8C(=O)N8CCC[C@H]8C(=O)N8CCC[C@H]8C(=O)N8CCC[C@H]8C(=O)N(CCCn8cc(CCCN(C)C(=O)c9ccc(-c%10nc%11ccc(-c%12ccc%13nc(-c%14ccc(C(=O)NCCN(C)C)cc%14)[nH]c%13c%12)cc%11[nH]%10)cc9)nn8)CC(N)=O)nn7)cc6)[nH]c5c4)cc3[nH]2)cc1 [Compound 435] | 13.3 |
| CN(C)CCNC(=O)c1ccc(-c2nc3ccc(-c4ccc5nc(-c6ccc(C(=O)Nc7cccc(-c8cn(CCCNCC(=O)N9CCC[C@H]9C(=O)N9CCC[C@H]9C(=O)N9CCCC9C(=O)N9CCC[C@H]9C(=O)N(CCCn9cc(-c%10cccc(NC(=O)c%11ccc(-c%12nc%13ccc(-c%14ccc%15nc(-c%16ccc(C(=O)NCCN(C)C)cc%16)[nH]c%15c%14)cc%13[nH]%12)cc%11)c%10)nn9)CC(N)=O)nn8)c7)cc6)[nH]c5c4)cc3[nH]2)cc1 (stereo partly shown) [Compound 436] | 2.6 |
| CN(C)CCNC(=O)c1ccc(-c2nc3ccc(-c4ccc5nc(-c6ccc(C(=O)NCCOCCOCc7cn(CCCNCC(=O)N8CCCC8C(=O)N8CCC[C@H]8C(=O)N(CCCn8cc(COCCOCCNC(=O)c9ccc(-c%10nc%11ccc(-c%12ccc%13nc(-c%14ccc(C(=O)NCCN(C)C)cc%14)[nH]c%13c%12)cc%11[nH]%10)cc9)nn8)CC(N)=O)nn7)cc6)[nH]c5c4)cc3[nH]2)cc1 (stereo partly shown) [Compound 437] | 7.5 |

Reference: patent publication US10961202B2, “Bis-benzimidazole compounds and methods of using the same” (THE SCRIPPS RESEARCH INSTITUTE, priority 2017, dated 2021)
